From US20210395248A1, “INHIBITORS OF HUMAN IMMUNODEFICIENCY VIRUS REPLICATION” (ViiV HEALTHCARE UK (NO.5) LIMITED, priority 2018, published 2021)

What was measured:
[1] = tested on: recombinant NL4-3 virus (Renilla luciferase reporter) in MT-2 cells; assay: HIV cell culture assay (antiviral activity, luciferase readout in infected MT-2 cells); assay type: cell-based; conditions: NL43
Protocol: HIV cell culture assay—MT-2 cells, 293T cells and the proviral DNA clone of NL4-3 virus were obtained from the NIH AIDS Research and Reference Reagent Program. MT-2 cells were propagated in RPMI 1640 media supplemented with 10% heat inactivated fetal bovine serum (FBS), […]. The 293T cells were propagated in DMEM media supplemented with 10% heat inactivated FBS, […]. A recombinant NL4-3 proviral clone, in which a section of the nef gene was replaced with the Renilla luciferase gene, was used to make the reference virus used in these studies. The recombinant virus was prepared through transfection of the recombinant NL4-3 proviral clone into 293T cells using Transit-293 Transfection Reagent from Mirus Bio LLC (Madison, Wis.). Supernatent was harvested after 2-3 days and the amount of virus present was titered in MT-2 cells using luciferase enzyme activity as a marker by measuring luciferase enzyme activity. Luciferase was quantitated using the EnduRen Live Cell Substrate from Promega (Madison, Wis.). Antiviral activities of compounds toward the recombinant virus were quantified by measuring luciferase activity in MT-2 cells infected for 4-5 days with the recombinant virus in the presence of serial dilutions of the compound.
The 50% effective concentration (EC50) was calculated by using the exponential form of the median effect equation where (Fa)=1/[1+(EC50/drug conc.)m] (Johnson V A, Byington RT. Infectivity Assay. In Techniques in HIV Research, ed. Aldovini A, Walker B D. 71-76. New York: Stockton Press. 1990). The 50% inhibitory concentration (EC50) was calculated by using the exponential form of the median effect equation where percent inhibition=1/[1+(EC50/drug concentration)m], where m is a parameter that reflects the slope of the concentration-response curve.

[2] = Compound cytotoxicity, XTT-based colorimetric assay; assay type: cell-based; conditions: human; uninfected MT2 cells, day 4, XTT; read-out: CC50
Protocol: Compound cytotoxicity and the corresponding CC50 values were determined using the same protocol as described in the antiviral assay except that uninfected cells were used. Cytotoxicity was assessed on day 4 in uninfected MT2 cells by using a XTT (2,3-bis [2-Methoxy-4-nitro-5-sulfophenyl]-2H-tetrazolium-5-carboxyanilide inner salt)-based colorimetric assay (Sigma-Aldrich, St Louis, Mo.).

| Compound | EC50 [1] [nM] | CC50 at 4 days [2] [nM] |
| --- | --- | --- |
| Cn1nc(NS(C)(=O)=O)c2c(Cl)ccc(-n3c([C@H](Cc4cc(F)cc(F)c4)NC(=O)Cn4nc(C(F)F)c5c4C(F)(F)[C@@H]4C[C@H]54)nc4nc(NCCC(C)(F)F)ccc4c3=O)c21 (atropisomer, axis not shown; (P)) [Example 25, N—((S)-1-((3P)-3-(4-chloro-1-methyl-3-(methylsulfonamido)-1H-indazol-7-yl)-7-((3,3-difluorobutyl)amino)-4-oxo-3,4-dihydropyrido[2,3-d]pyrimidin-2-yl)-2-(3,5-difluorophenyl)ethyl)-2-((3bS,4aR)-3-(difluoromethyl)-5,5-difluoro-3b,4,4a,5-tetrahydro-1H-cyclopropa[3,4]cyclopenta[1,2-c]pyrazol-1-yl)acetamide] | 0.037 | > 100 |
| Cn1nc(NS(C)(=O)=O)c2c(Cl)ccc(-n3c([C@H](Cc4cc(F)cc(F)c4)NC(=O)Cn4nc(C(F)F)c5c4C(F)(F)[C@@H]4C[C@H]54)nc4nc(N5CC(C)(C)OC(C)(C)C5)ccc4c3=O)c21 (atropisomer, axis not shown; (P)) [Example 26, N—((S)-1-((3P)-3-(4-chloro-1-methyl-3-(methylsulfonamido)-1H-indazol-7-yl)-4-oxo-7-(2,2,6,6-tetramethylmorpholino)-3,4-dihydropyrido[2,3-d]pyrimidin-2-yl)-2-(3,5-difluorophenyl)ethyl)-2-((3bS,4aR)-3-(difluoromethyl)-5,5-difluoro-3b,4,4a,5-tetrahydro-1H-cyclopropa[3,4]cyclopenta[1,2-c]pyrazol-1-yl)acetamide] | 0.023 | > 100 |
| Cn1nc(NS(C)(=O)=O)c2c(Cl)ccc(-n3c([C@H](Cc4cc(F)cc(F)c4)NC(=O)Cn4nc(C(F)F)c5c4C(F)(F)[C@@H]4C[C@H]54)nc4nc(N5CCOC(C)(C)C5)ccc4c3=O)c21 (atropisomer, axis not shown; (P)) [Example 29, N—((S)-1-((3P)-3-(4-chloro-1-methyl-3-(methylsulfonamido)-1H-indazol-7-yl)-7-(2,2-dimethylmorpholino)-4-oxo-3,4-dihydropyrido[2,3-d]pyrimidin-2-yl)-2-(3,5-difluorophenyl)ethyl)-2-((3bS,4aR)-3-(difluoromethyl)-5,5-difluoro-3b,4,4a,5-tetrahydro-1H-cyclopropa[3,4]cyclopenta[1,2-c]pyrazol-1-yl)acetamide] | 0.035 | > 100 |
| CN(CCC(F)(F)F)c1ccc2c(=O)n(-c3ccc(Cl)c4c(NS(C)(=O)=O)nn(C)c34)c([C@H](Cc3cc(F)cc(F)c3)NC(=O)Cn3nc(C(F)F)c4c3C(F)(F)[C@@H]3C[C@H]43)nc2n1 (atropisomer, axis not shown; (P)) [Example 30, N—((S)-1-((3P)-3-(4-chloro-1-methyl-3-(methylsulfonamido)-1H-indazol-7-yl)-7-(methyl(3,3,3-trifluoropropyl)amino)-4-oxo-3,4-dihydropyrido[2,3-d]pyrimidin-2-yl)-2-(3,5-difluorophenyl)ethyl)-2-((3bS,4aR)-3-(difluoromethyl)-5,5-difluoro-3b,4,4a,5-tetrahydro-1H-cyclopropa[3,4]cyclopenta[1,2-c]pyrazol-1-yl)acetamide] | 0.032 | > 100 |
| Cn1nc(NS(C)(=O)=O)c2c(Cl)ccc(-n3c([C@H](Cc4cc(F)cc(F)c4)NC(=O)Cn4nc(C(F)F)c5c4C(F)(F)[C@@H]4C[C@H]54)nc4nc(NCCCC(F)(F)F)ccc4c3=O)c21 (atropisomer, axis not shown; (P)) [Example 31, N—((S)-1-((3P)-3-(4-chloro-1-methyl-3-(methylsulfonamido)-1H-indazol-7-yl)-4-oxo-7-((4,4,4-trifluorobutyl)amino)-3,4-dihydropyrido[2,3-d]pyrimidin-2-yl)-2-(3,5-difluorophenyl)ethyl)-2-((3bS,4aR)-3-(difluoromethyl)-5,5-difluoro-3b,4,4a,5-tetrahydro-1H-cyclopropa[3,4]cyclopenta[1,2-c]pyrazol-1-yl)acetamide] | 0.11 | > 100 |
| Cn1nc(NS(C)(=O)=O)c2c(Cl)ccc(-n3c([C@H](Cc4cc(F)cc(F)c4)NC(=O)Cn4nc(C(F)F)c5c4C(F)(F)[C@@H]4C[C@H]54)nc4nc(NCCC(F)(F)F)ccc4c3=O)c21 (atropisomer, axis not shown; (P)) [Example 32, N—((S)-1-((3P)-3-(4-chloro-1-methyl-3-(methylsulfonamido)-1H-indazol-7-yl)-4-oxo-7-((3,3,3-trifluoropropyl)amino)-3,4-dihydropyrido[2,3-d]pyrimidin-2-yl)-2-(3,5-difluorophenyl)ethyl)-2-((3bS,4aR)-3-(difluoromethyl)-5,5-difluoro-3b,4,4a,5-tetrahydro-1H-cyclopropa[3,4]cyclopenta[1,2-c]pyrazol-1-yl)acetamide] | 0.042 | > 100 |
| Cn1nc(NS(C)(=O)=O)c2c(Cl)ccc(-n3c([C@H](Cc4cc(F)cc(F)c4)NC(=O)Cn4nc(C(F)F)c5c4C(F)(F)[C@@H]4C[C@H]54)nc4nc(NCCC(F)F)ccc4c3=O)c21 (atropisomer, axis not shown; (P)) [Example 34, N—((S)-1-((3P)-3-(4-chloro-1-methyl-3-(methylsulfonamido)-1H-indazol-7-yl)-7-((3,3-difluoropropyl)amino)-4-oxo-3,4-dihydropyrido[2,3-d]pyrimidin-2-yl)-2-(3,5-difluorophenyl)ethyl)-2-((3bS,4aR)-3-(difluoromethyl)-5,5-difluoro-3b,4,4a,5-tetrahydro-1H-cyclopropa[3,4]cyclopenta[1,2-c]pyrazol-1-yl)acetamide] | 0.055 | > 100 |
| Cn1nc(NS(C)(=O)=O)c2c(Cl)ccc(-n3c([C@H](Cc4cc(F)cc(F)c4)NC(=O)Cn4nc(C(F)F)c5c4C(F)(F)[C@@H]4C[C@H]54)nc4nc(NCCCF)ccc4c3=O)c21 (atropisomer, axis not shown; (P)) [Example 35, N—((S)-1-((3P)-3-(4-chloro-1-methyl-3-(methylsulfonamido)-1H-indazol-7-yl)-7-((3-fluoropropyl)amino)-4-oxo-3,4-dihydropyrido[2,3-d]pyrimidin-2-yl)-2-(3,5-difluorophenyl)ethyl)-2-((3bS,4aR)-3-(difluoromethyl)-5,5-difluoro-3b,4,4a,5-tetrahydro-1H-cyclopropa[3,4]cyclopenta[1,2-c]pyrazol-1-yl)acetamide] | 0.11 | > 100 |
| C[C@@H]1CN(c2ccc3c(=O)n(-c4ccc(Cl)c5c(NS(C)(=O)=O)nn(C)c45)c([C@H](Cc4cc(F)cc(F)c4)NC(=O)Cn4nc(C(F)F)c5c4C(F)(F)[C@@H]4C[C@H]54)nc3n2)C[C@H](C)O1 (atropisomer, axis not shown; (aR)) [Example 1, N—((S)-1-(3-(4-chloro-1-methyl-3-(methylsulfonamido)-1H-indazol-7-yl)-7-((2S,6R)-2,6-dimethylmorpholino)-4-oxo-3,4-dihydropyrido[2,3-d]pyrimidin-2-yl)-2-(3,5-difluorophenyl)ethyl)-2-((3bS,4aR)-3-(difluoromethyl)-5,5-difluoro-3b,4,4a,5-tetrahydro-1H-cyclopropa[3,4]cyclopenta[1,2-c]pyrazol-1-yl)acetamide] | 0.041 | > 500 |
| C[C@@H]1CN(c2ccc3c(=O)n(-c4ccc(Cl)c5c(NS(C)(=O)=O)nn(C)c45)c([C@H](Cc4cc(F)cc(F)c4)NC(=O)Cn4nc(C(F)(F)F)c5c4C(F)(F)[C@@H]4C[C@H]54)nc3n2)C[C@H](C)O1 (atropisomer, axis not shown; (aR)) [Example 2, N—((S)-1-(3-(4-chloro-1-methyl-3-(methylsulfonamido)-1H-indazol-7-yl)-7-((2S,6R)-2,6-dimethylmorpholino)-4-oxo-3,4-dihydropyrido[2,3-d]pyrimidin-2-yl)-2-(3,5-difluorophenyl)ethyl)-2-((3bS,4aR)-5,5-difluoro-3-(trifluoromethyl)-3b,4,4a,5-tetrahydro-1H-cyclopropa[3,4]cyclopenta[1,2-c]pyrazol-1-yl)acetamide] | 0.036 | > 500 |
